Measured values reported in EP4501942A1, “PEPTIDOMIMETICS WITH ANTIVIRAL ACTIVITY” (priority 2023, dated 2025).
Where two headings read alike, the source gives them in different places.

How the values were obtained:
in vitro [1] = conditions: human
[2] = system: GFP-expressing recombinant vesicular stomatitis virus (VSV-GFP); assay: microbe, parasite or virus in culture; assay type: cell-based; conditions: A549-ACE2, 16 h
[3] = Cytotoxicity MTT assay in uninfected A549-ACE2 cells; assay type: cell-based; conditions: human
Method: To evaluate the cytotoxicity profile of the compounds MTT assays were performed in A549-ACE2 cells. Uninfected cells were incubated with a range of compound concentrations (from 100 to 1 µM) for forty-eight hours, time at which the MTT substrate [3-(4,5-dimethylthiazol-2-yl)-2,5-diphenyltetrazolium bromide] was added and the formation of formazan precipitates was evaluated two hours later, using a colorimetric readout. Vehicle-treated (DMSO) cells were used as reference (100 %).

SARS-CoV-2 M^pro protein = SARS-CoV-2 M^pro protein (Severe acute respiratory syndrome coronavirus 2, UniProt P0DTD1); assay: biochemical; conditions: for IC50: three separate experiments in duplicate, read-out: IC50, mean±SD; for inhibition at 10 µM: read-out: % of inhibition at 10 µM
SARS-CoV-2 = assay: microbe, parasite or virus in culture; assay type: cell-based
in vitro [4] = assay: in vitro
[5] = Severe acute respiratory syndrome coronavirus 2, SARS-CoV-2, A549-ACE2 cells, MOI 0.005, 48 h, read-out: EC50
[6] = Severe acute respiratory syndrome coronavirus 2, SARS-CoV-2, A549-ACE2 cells, MOI 0.005, 48 h, read-out: EC90
[7] = isolated SARS-CoV-2 M^pro, compound at 10 µM
[8] = Severe acute respiratory syndrome coronavirus 2, A549-ACE2, 48 h

Structure (SMILES)	CC50 at 48 h [3] [µM]	IC50 (SARS-CoV-2 M^pro protein; isolated SARS-CoV-2 M^pro) [µM]	EC50 (SARS-CoV-2; [5]) [µM]	EC90 (SARS-CoV-2; [6]) [µM]	other results
Cc1c(-c2ccc(-c3ccccc3F)cc2)nc2ccc(F)cc2c1C(=O)O [Brequinar, reference compound]					CC50 (in vitro [1]): > 50 µM; EC50 [2]: < 0.6 µM; EC90 [2]: < 0.6 µM
CC(C)C[C@@]1(C(=O)N[C@H](C#N)C[C@@H]2CCNC2=O)[C@H](C)CN1C(=O)[C@@H](NC(=O)OCc1ccccc1)C(C)C [Example 1]	> 100	1.99 ± 1	5	20	
CC(C)C[C@]1(C(=O)N[C@H](C#N)C[C@@H]2CCNC2=O)[C@@H](C)CN1C(=O)[C@@H](NC(=O)OCc1ccccc1)C(C)C [Example 2]					inhibition at 10 µM (SARS-CoV-2 M^pro protein; [7]): 0%
CC(C)C[C@@]1(C(=O)N[C@H](C#N)C[C@@H]2CCNC2=O)[C@H](C)CN1C(=O)[C@@H](NC(=O)C(F)(F)F)C(C)C [Example 3]	100	2.58 ± 0.48	10	32	
CC(C)C[C@]1(C(=O)N[C@H](C#N)C[C@@H]2CCNC2=O)[C@@H](C)CN1C(=O)[C@@H](NC(=O)C(F)(F)F)C(C)C [Example 4]					inhibition at 10 µM (SARS-CoV-2 M^pro protein; [7]): 0%
CC(C)[C@H](NC(=O)OCc1ccccc1)C(=O)N1C[C@@H](C)[C@@]1(Cc1ccccc1)C(=O)N[C@H](C#N)C[C@@H]1CCNC1=O [Example 5]	> 100	0.13 ± 0.03	1	6	
CC(C)[C@H](NC(=O)C(F)(F)F)C(=O)N1C[C@@H](C)[C@@]1(Cc1ccccc1)C(=O)N[C@H](C#N)C[C@@H]1CCNC1=O [Example 7]	> 100	0.2 ± 0.03	2	12	
CC(C)C(NC(=O)C1CC1)C(=O)N1CC(C)C1(Cc1ccccc1)C(=O)NC(C#N)CC1CCNC1=O [Example 8, Cyclopropylcarbonyl-L-Val-(αS,β'R)-Azf-NH[(1S)-1-cyano-2-[(3'S)-2'-oxopyrrolidin-3'-yl]ethane]	> 100	0.39 ± 0.05	8	31	
CC(C)[C@H](NC(=O)OCc1ccccc1)C(=O)N1C[C@@H](C)[C@@]1(Cc1ccc(O)cc1)C(=O)N[C@H](C#N)C[C@@H]1CCNC1=O [Example 9]		6.43 ± 0.53			
CC(C)[C@H](NC(=O)OCc1ccccc1)C(=O)N1C[C@@H](C)[C@@]1(Cc1ccc(OC(C)(C)C)cc1)C(=O)N[C@H](C#N)C[C@@H]1CCNC1=O [Example 10]					inhibition at 10 µM (SARS-CoV-2 M^pro protein): 9%
CC(C)[C@H](NC(=O)OCc1ccccc1)C(=O)N1C[C@@H](C)[C@@]1(Cc1c[nH]c2ccccc12)C(=O)N[C@H](C#N)C[C@@H]1CCNC1=O [Example 11]	> 100	4.74 ± 0.81	31	48	
CC(C)C[C@@]1(C(=O)N[C@H](C#N)C[C@@H]2CCNC2=O)[C@H](C)CN1C(=O)[C@@H](NC(=O)OC(C)(C)C)C(C)(C)C [Example 12]	100	4.7 ± 0.76	29	> 50	
C[C@@H]1CN(C(=O)[C@@H](NC(=O)OCc2ccccc2)C(C)(C)C)[C@]1(Cc1ccccc1)C(=O)N[C@H](C#N)C[C@@H]1CCNC1=O [Example 13]	> 100		4	15	
C[C@@H]1CN(C(=O)[C@@H](NC(=O)C(F)(F)F)C(C)(C)C)[C@]1(Cc1ccccc1)C(=O)N[C@H](C#N)C[C@@H]1CCNC1=O [Example 15]	> 100		2	13	
COC(=O)N[C@H](C(=O)N1C[C@@H](C)[C@@]1(Cc1ccccc1)C(=O)N[C@H](C#N)C[C@@H]1CCNC1=O)C(C)(C)C [Example 16]	> 100	0.94 ± 0.17	3	20	
Cc1ccc(OCC(=O)N[C@H](C(=O)N2C[C@@H](C)[C@@]2(Cc2ccccc2)C(=O)N[C@H](C#N)C[C@@H]2CCNC2=O)C(C)(C)C)cc1 [Example 17]	100	1.03	3	18	
C[C@@H]1CN(C(=O)[C@@H](NC(=O)OCC(F)F)C(C)(C)C)[C@]1(Cc1ccccc1)C(=O)N[C@H](C#N)C[C@@H]1CCNC1=O [Example 18]	> 100		4	7	
C[C@@H]1CN(C(=O)[C@H](CCCCNC(=O)OC(C)(C)C)NC(=O)OCc2ccccc2)[C@]1(Cc1ccccc1)C(=O)N[C@H](C#N)C[C@@H]1CCNC1=O [Example 20]	100		7	18	

Structure (SMILES)	CC50 at 48 h [3] [µM]	IC50 (SARS-CoV-2 M^pro protein; isolated SARS-CoV-2 M^pro) [µM]	EC50 (SARS-CoV-2; [5]) [µM]	EC90 (SARS-CoV-2; [6]) [µM]	other results
C[C@@H]1CN(C(=O)[C@H](CCCCN)NC(=O)OCc2ccccc2)[C@]1(Cc1ccccc1)C(=O)N[C@H](C#N)C[C@@H]1CCNC1=O [Example 21]		3.66			
C[C@@H]1CN(C(=O)[C@@H](NC(=O)OCc2ccccc2)C(C)(C)C)[C@]1(CCCCNC(=O)OC(C)(C)C)C(=O)N[C@H](C#N)C[C@@H]1CCNC1=O [Example 22]					inhibition at 10 µM (SARS-CoV-2 M^pro protein): 16%
C[C@@H]1CN(C(=O)[C@@H](NC(=O)OCc2ccccc2)C(C)(C)C)[C@]1(CCCCN)C(=O)N[C@H](C#N)C[C@@H]1CCNC1=O [Example 23]					inhibition at 10 µM (SARS-CoV-2 M^pro protein): 0%
C[C@@H]1CN(C(=O)[C@@H](NC(=O)OCc2ccccc2)C(C)(C)C)[C@]1(Cc1ccccc1)C(=O)N[C@H](C#N)Cc1c[nH]cn1 [Example 24]	> 100		18	40	inhibition at 10 µM (SARS-CoV-2 M^pro protein): 10%
CC(C)[C@@H](CC(=O)N1C[C@@H](C)[C@@]1(Cc1ccccc1)C(=O)N[C@H](C#N)C[C@@H]1CCNC1=O)NC(=O)OC(C)(C)C [Example 26]					inhibition at 10 µM (SARS-CoV-2 M^pro protein): 28%
CC(C)C[C@@]1(C(=O)N[C@H](C=O)C[C@@H]2CCNC2=O)[C@H](C)CN1C(=O)[C@@H](NC(=O)OCc1ccccc1)C(C)C [Example 27, Z-L-Val-(αS,β'R)-Azl-L-Ala(3S-2-oxopyrrolidin-3-yl)-H]	> 100	0.077 ± 0.02	1	5	CC50 (in vitro [1]): > 50 µM; EC50 [2]: > 50 µM; EC90 [2]: > 50 µM
CC(C)[C@H](NC(=O)OCc1ccccc1)C(=O)N1C[C@@H](C)[C@@]1(Cc1ccccc1)C(=O)N[C@H](C=O)C[C@@H]1CCNC1=O [Example 28, Z-L-Val-(αS,β'R)-Azf-L-Ala(3S-2-oxopyrrolidin-3-yl)-H]	> 100	0.005 ± 0.002	2	12	
COC(=O)N[C@H](C(=O)N1C[C@@H](C)[C@@]1(Cc1ccccc1)C(=O)N[C@H](C=O)C[C@@H]1CCNC1=O)C(C)(C)C [Example 30, Methyloxycarbonyl-L-Tbg-(αS,β'R)-Azf-L-Ala(3S-2-oxopyrrolidin-3-yl)-CHO]	> 100	0.048 ± 0.004	15	25	
C[C@@H]1CN(C(=O)[C@@H](NC(=O)OCC(F)F)C(C)(C)C)[C@]1(Cc1ccccc1)C(=O)N[C@H](C=O)C[C@@H]1CCNC1=O [Example 31, 2,2-Difluoroethyloxycarbonyl-L-Tbg-(αS,β'R)-Azf-L-Ala(3S-2-oxopyrrolidin-3-yl)-H]	> 100	0.024 ± 0.002	3	11	
C[C@@H]1CN(C(=O)[C@@H](NC(=O)OC(C)(C)C)C(C)(C)C)[C@]1(Cc1ccccc1)C(=O)N[C@H](/C=C/C(=O)OCc1ccccc1)C[C@@H]1CCNC1=O [Example 32]					inhibition at 10 µM (SARS-CoV-2 M^pro protein): 40%
CC(C)C[C@@]1(C(=O)N[C@H](C#N)C[C@@H]2CCNC2=O)[C@H](C)CN1C(=O)[C@@H](NC(=O)OCC(F)F)C(C)(C)C [Example 33]	> 100	5.94 ± 0.69	16	> 25	
CCCC[C@@H](C#N)NC(=O)[C@]1(CC(C)C)[C@H](C)CN1C(=O)[C@@H](NC(=O)OC(C)(C)C)C(C)(C)C [Example 34, Boc-L-Tbg-(aS,β'R)-Azl-NH-[(1S)-1-cyano]pentane]					inhibition at 10 µM (SARS-CoV-2 M^pro protein): 0%; CC50 (in vitro [4]): > 50 µM
C[C@@H]1CN(C(=O)[C@@H](NC(=O)OC(C)(C)C)C(C)(C)C)[C@]1(CC1CCCCC1)C(=O)N[C@H](C#N)C[C@@H]1CCNC1=O [Example 35]	> 100		3	20	
C[C@@H]1CN(C(=O)[C@@H](NC(=O)OCC(F)F)C(C)(C)C)[C@]1(CC1CCCCC1)C(=O)N[C@H](C#N)C[C@@H]1CCNC1=O [Example 37]	> 100		4	22	
C[C@@H]1CN(C(=O)[C@@H](NC(=O)C(F)(F)F)C(C)(C)C)[C@]1(CC1CCCCC1)C(=O)N[C@H](C#N)C[C@@H]1CCNC1=O [Example 38]	> 100	2.36 ± 0.75	25	> 25	
CC(C)[C@H](NC(=O)OCC(F)F)C(=O)N1C[C@@H](C)[C@@]1(Cc1ccccc1)C(=O)N[C@H](C#N)C[C@@H]1CCNC1=O [Example 39]	> 50		0.4	2	
CC(C)(C)[C@@H]1NC(=O)O[C@@H]2CCC[C@H]2OC/C=C/C(F)(F)c2nc3ccccc3nc2O[C@@H]2C[C@@H](C(=O)N[C@]3(C(=O)NS(=O)(=O)C4(C)CC4)C[C@H]3C(F)F)N(C2)C1=O [Glecaprevir, reference compound]					CC50 (in vitro [4]): > 50 µM
CC(C)(C)[C@H](NC(=O)C(F)(F)F)C(=O)N1C[C@H]2[C@@H]([C@H]1C(=O)N[C@H](C#N)C[C@@H]1CCNC1=O)C2(C)C [PF-07321332, nirmatrelvir, reference compound]	100				EC50 (SARS-CoV-2; [8]): < 0.2 µM; EC90 (SARS-CoV-2; [8]): < 0.2 µM
